# Target: T1, sEH (Homo sapiens, UniProt P34913)
# T1 sequence (P34913 1-555): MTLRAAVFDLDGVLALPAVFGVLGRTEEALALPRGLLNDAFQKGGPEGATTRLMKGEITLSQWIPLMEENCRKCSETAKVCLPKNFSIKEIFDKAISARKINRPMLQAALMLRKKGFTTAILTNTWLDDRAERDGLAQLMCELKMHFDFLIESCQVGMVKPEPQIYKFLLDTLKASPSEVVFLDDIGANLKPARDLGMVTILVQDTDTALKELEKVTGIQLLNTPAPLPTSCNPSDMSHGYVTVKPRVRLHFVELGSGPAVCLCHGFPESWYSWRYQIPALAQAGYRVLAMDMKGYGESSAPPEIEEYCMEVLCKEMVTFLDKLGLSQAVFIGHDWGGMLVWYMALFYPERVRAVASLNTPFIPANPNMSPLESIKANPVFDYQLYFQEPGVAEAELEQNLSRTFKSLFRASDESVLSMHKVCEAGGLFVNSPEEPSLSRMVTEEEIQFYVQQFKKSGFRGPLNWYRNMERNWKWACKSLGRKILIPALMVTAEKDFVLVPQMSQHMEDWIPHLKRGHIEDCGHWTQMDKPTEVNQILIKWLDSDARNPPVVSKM
# Experiment: In vitro sEH activity assay (PHOME substrate, fluorescence)
# Format: biochemical
# Description: Hydrolysis of PHOME by sEH results in the release of cyanohydrins that further decomposes to cyanide ion and 6-methoxy-2-naphthaldehyde (highly fluorescent). The fluorescence was analyzed at an excitation and emission wavelength of 330 nm and 465 nm respectively.
compound,measurement,setting,value
"C[C@H](CS)C(=O)N1CCC[C@H]1C(=O)O [Captopril, captopril]",sEH activity,remaining enzyme activity,100%
same,IC50,"sEH, PHOME substrate",693 nM

# From US11766419B2, “Mebeverine as soluble epoxide hydrolase inhibitor” (Banasthali Vidyapith, priority 2021, dated 2023)
